Assay results taken from ChEMBL document CHEMBL3792297, “Studies on phenothiazines: New microtubule-interacting compounds with phenothiazine A-ring as potent antineoplastic agents” (Bioorg Med Chem, 2016).

Assays:
U-251 [1] = assay: Growth inhibition of human U251 cells after 48 hrs by SRB assay; type: functional; details: U-251, 48 h
[2] = Growth inhibition of human HCC2998 cells after 48 hrs by SRB assay; type: functional; details: HCC 2998, 48 h
[3] = Growth inhibition of human OVCAR3 cells at 10 uM after 48 hrs by SRB assay relative to control; type: functional; details: OVCAR-3, 48 h, read-out: GI
[4] = Growth inhibition of human SKOV3 cells after 48 hrs by SRB assay; type: functional; details: SK-OV-3, 48 h
[5] = Growth inhibition of human NCI-ADR-RES cells after 48 hrs by SRB assay; type: functional
[6] = Growth inhibition of human SF539 cells at 10 uM after 48 hrs by SRB assay relative to control; type: functional; details: SF-539, 48 h, read-out: GI
[7] = Growth inhibition of human OVCAR5 cells at 10 uM after 48 hrs by SRB assay relative to control; type: functional; details: OVCAR-5, 48 h, read-out: GI
[8] = Growth inhibition of human HCT15 cells after 48 hrs by SRB assay; type: functional; details: HCT-15, 48 h
[9] = Growth inhibition of human HCT15 cells at 10 uM after 48 hrs by SRB assay relative to control; type: functional; details: HCT-15, 48 h, read-out: GI
M14 [10] = assay: Growth inhibition of human M14 cells after 48 hrs by SRB assay; type: functional; details: M14, 48 h
ACHN [11] = assay: Growth inhibition of human ACHN cells at 10 uM after 48 hrs by SRB assay relative to control; type: functional; details: read-out: GI
[12] = Growth inhibition of human HOP62 cells at 10 uM after 48 hrs by SRB assay relative to control; type: functional; details: HOP-62, 48 h, read-out: GI
KM12 [13] = assay: Growth inhibition of human KM12 cells after 48 hrs by SRB assay; type: functional; details: KM12, 48 h
Malme-3M [14] = assay: Growth inhibition of human MALME-3M cells at 10 uM after 48 hrs by SRB assay relative to control; type: functional; details: read-out: GI
K562 = assay: Growth inhibition of human K562 cells at 10 uM after 48 hrs by SRB assay relative to control; type: functional; details: K562, 48 h, read-out: GI
ACHN [15] = assay: Growth inhibition of human ACHN cells after 48 hrs by SRB assay; type: functional
[16] = Growth inhibition of human SNB75 cells after 48 hrs by SRB assay; type: functional; details: SNB-75, 48 h
[17] = Growth inhibition of human MOLT4 cells at 10 uM after 48 hrs by SRB assay relative to control; type: functional; details: MOLT-4, 48 h, read-out: GI
[18] = Growth inhibition of human NCI-ADR-RES cells at 10 uM after 48 hrs by SRB assay relative to control; type: functional; details: read-out: GI
[19] = Growth inhibition of human HOP92 cells at 10 uM after 48 hrs by SRB assay relative to control; type: functional; details: HOP-92, 48 h, read-out: GI
[20] = Growth inhibition of human UACC62 cells after 48 hrs by SRB assay; type: functional; details: UACC-62, 48 h
NCI-H23 [21] = assay: Growth inhibition of human NCI-H23 cells at 10 uM after 48 hrs by SRB assay relative to control; type: functional; details: NCI-H23, 48 h, read-out: GI
[22] = Inhibition of sheep brain tubulin polymerization by DAPI staining-based fluorimetric method; set-up: species or system Ovis aries
A549 = assay: Growth inhibition of human A549 cells at 10 uM after 48 hrs by SRB assay relative to control; type: functional; details: A549, 48 h, read-out: GI
[23] = Growth inhibition of human HL-60(TB) cells after 48 hrs by SRB assay; type: functional; details: HL-60, 48 h
SK-MEL-5 = assay: Growth inhibition of human SK-MEL-5 cells at 10 uM after 48 hrs by SRB assay relative to control; type: functional; details: SK-MEL-5, 48 h, read-out: GI
T47D = assay: Growth inhibition of human T47D cells at 10 uM after 48 hrs by SRB assay relative to control; type: functional; details: read-out: GI
SN12C = assay: Growth inhibition of human SN12C cells after 48 hrs by SRB assay; type: functional
U-251 [24] = assay: Growth inhibition of human U251 cells at 10 uM after 48 hrs by SRB assay relative to control; type: functional; details: U-251, 48 h, read-out: GI
KM12 [25] = assay: Growth inhibition of human KM12 cells at 10 uM after 48 hrs by SRB assay relative to control; type: functional; details: KM12, 48 h, read-out: GI
[26] = Growth inhibition of human SW620 cells at 10 uM after 48 hrs by SRB assay relative to control; type: functional; details: SW-620, 48 h, read-out: GI
Malme-3M [27] = assay: Growth inhibition of human MALME-3M cells after 48 hrs by SRB assay; type: functional
[28] = Growth inhibition of human SF295 cells after 48 hrs by SRB assay; type: functional; details: SF-295, 48 h
[29] = Growth inhibition of human BT549 cells at 10 uM after 48 hrs by SRB assay relative to control; type: functional; details: BT-549, 48 h, read-out: GI
SR = assay: Growth inhibition of human SR cells after 48 hrs by SRB assay; type: functional
[30] = Growth inhibition of human HOP92 cells after 48 hrs by SRB assay; type: functional; details: HOP-92, 48 h
CCRF-CEM = assay: Growth inhibition of human CCRF-CEM cells after 48 hrs by SRB assay; type: functional
NCI-H522 = assay: Growth inhibition of human NCI-H522 cells after 48 hrs by SRB assay; type: functional; details: NCI-H522, 48 h
NCI-H23 [31] = assay: Growth inhibition of human NCI-H23 cells after 48 hrs by SRB assay; type: functional; details: NCI-H23, 48 h
A498 = assay: Growth inhibition of human A498 cells after 48 hrs by SRB assay; type: functional; details: A498, 48 h
[32] = Growth inhibition of human HCT116 cells after 48 hrs by SRB assay; type: functional; details: HCT-116, 48 h
HT-29 = assay: Growth inhibition of human HT-29 cells after 48 hrs by SRB assay; type: functional; details: HT-29, 48 h
[33] = Growth inhibition of human SNB19 cells at 10 uM after 48 hrs by SRB assay relative to control; type: functional; details: SNB-19, 48 h, read-out: GI
[34] = Growth inhibition of human OVCAR5 cells after 48 hrs by SRB assay; type: functional; details: OVCAR-5, 48 h
M14 [35] = assay: Growth inhibition of human M14 cells at 10 uM after 48 hrs by SRB assay relative to control; type: functional; details: M14, 48 h, read-out: GI
[36] = Growth inhibition of human LOXIMVI cells after 48 hrs by SRB assay; type: functional; details: LOX IMVI
[37] = Growth inhibition of human HCC2998 cells at 10 uM after 48 hrs by SRB assay relative to control; type: functional; details: HCC 2998, 48 h, read-out: GI

In the case of `COc1ccc(C(=O)N2c3ccccc3Sc3ccccc32)c(C(F)(F)F)c1`, the GI50 (U-251 [1]) is reported as 500 nM, the GI50 [2] is reported as 467 nM and the inhibition of growth at 10 µM [3] is reported as 100%. For the same compound, the GI50 [4] was 794 nM, the GI50 [5] was 370 nM and the inhibition of growth at 10 µM [6] was 100%. It also gave an inhibition of growth at 10 µM [7] of 55%, a GI50 [8] of 405 nM and an inhibition of growth at 10 µM [9] of 82%. For the same compound, the GI50 (M14 [10]) was 343 nM, the inhibition of growth at 10 µM (ACHN [11]) was 68% and the inhibition of growth at 10 µM [12] was 57%. For the same compound, the GI50 (KM12 [13]) was 413 nM, the inhibition of growth at 10 µM (Malme-3M [14]) was 40% and the inhibition of growth at 10 µM (K562) was 100%. For the same compound, the GI50 (ACHN [15]) was 1330 nM, the GI50 [16] was 264 nM and the inhibition of growth at 10 µM [17] was 85%. The inhibition of growth at 10 µM [18] was 97%, the inhibition of growth at 10 µM [19] was 85% and the GI50 [20] was 438 nM. The inhibition of growth at 10 µM (NCI-H23 [21]) was 76%, the IC50 [22] was 11900 nM and the inhibition of growth at 10 µM (A549) was 75%. The GI50 [23] was 252 nM, the inhibition of growth at 10 µM (SK-MEL-5) was 95% and the inhibition of growth at 10 µM (T47D) was 48%. The GI50 (SN12C) was 1300 nM, the inhibition of growth at 10 µM (U-251 [24]) was 81% and the inhibition of growth at 10 µM (KM12 [25]) was 82%. The inhibition of growth at 10 µM [26] was 75%, the GI50 (Malme-3M [27]) was 25800 nM and the GI50 [28] was 372 nM. The inhibition of growth at 10 µM [29] was 89%, the GI50 (SR) was 312 nM and the GI50 [30] was 152 nM. The GI50 (CCRF-CEM) was 88 nM, the GI50 (NCI-H522) was 320 nM and the GI50 (NCI-H23 [31]) was 578 nM. For the same compound, the GI50 (A498) was 282 nM, the GI50 [32] was 505 nM and the GI50 (HT-29) was 362 nM. The inhibition of growth at 10 µM [33] was 69%, the GI50 [34] was 1610 nM and the inhibition of growth at 10 µM (M14 [35]) was 98%. For the same compound, the GI50 [36] was 516 nM and the inhibition of growth at 10 µM [37] was 74%.
